The source of these data is BindingDB's records for doi:10.1021/jm970815r (Eisai, 1998).

The structures appear in SMILES notation. pIC50: −log10 of the molar value.

The nature of the experiment: Inhibition of Phosphodiesterase 5 from porcine platelets.

For the compound `COc1ccc(CNc2nnc(Cl)c3ccc(C#N)cc23)cc1Cl`, the pIC50 is 8.32.

Compound `CCOc1ccc(CNc2nnc(Cl)c3ccc(C#N)cc23)cc1Cl` [1-Chloro-4-(3-chloro-4-ethoxy-benzylamino)-phthalazine-6-carbonitrile] had a pIC50 of 7.31. Compared with the last compound, the pIC50 is 1.01 log units lower. To `COc1ccc(CNc2nnc(Cl)c3ccc(C#N)cc23)cc1` [1-Chloro-4-(4-methoxy-benzylamino)-phthalazine-6-carbonitrile] belongs 6.85; to `COc1ccc(CNc2nnc(Cl)c3cc(C#N)ccc23)cc1Cl` [4-Chloro-1-(3-chloro-4-methoxy-benzylamino)-phthalazine-6-carbonitrile], 6.85; to `COc1ccc(CNc2nnc(Cl)c3cc(Cl)ccc23)cc1Cl` [(3-Chloro-4-methoxy-benzyl)-(4,6-dichloro-phthalazin-1-yl)-amine], 6.09. For `COc1ccc(CNc2nnc(Cl)c3ccc([N+](=O)[O-])cc23)cc1Cl` [(3-Chloro-4-methoxy-benzyl)-(4-chloro-7-nitro-phthalazin-1-yl)-amine], the pIC50 was 8.46. Against the preceding compound, the pIC50 is 2.37 log units higher.

In the case of `COc1ccc(CNc2nnc(Cl)c3ccc(C(F)(F)F)cc23)cc1Cl` [(3-Chloro-4-methoxy-benzyl)-(4-chloro-7-trifluoromethyl-phthalazin-1-yl)-amine], the pIC50 is 8.28. As for `O=[N+]([O-])c1ccc2c(Cl)nnc(NCc3ccc4c(c3)OCO4)c2c1` [Benzo[1,3]dioxol-5-ylmethyl-(4-chloro-7-nitro-phthalazin-1-yl)-amine], the pIC50 was 7.20.

In general, pIC50 refers to the IC50 on a negative log10 scale, so that one unit is a factor of ten. Read a high pIC50 as a low IC50.
